Read-outs that look alike come from different tables or passages of the source.
Target: T1, human cGAS (residues 161-522) (Homo sapiens, UniProt Q8N884)
T1 construct: Recombinantly expressed purified human cGAS (residues 161-522) was used at 25 nM; made in house
Experiment: cGAS Activity Assay—Malachite Green
Assay type: biochemical
Description: Compounds were tested for cGAS inhibition in a coupled enzymatic assay based on Phosphate detection by Malachite Green. Final assay conditions were 20 mM TRIS pH 7.5 (Applichem), 5 mM MgCl2 (Sigma) and 0.01% BSA (Sigma) supplemented with 80 μM ATP (Sigma), 80 μM GTP (Sigma) and 100 nM Interferon Stimulating DNA (ISD) (Microsynth).
1 μL of DMSO dilution series was transferred to 32.3 μL reaction buffer, mixed by pipetting up/down, spun for 1 minute at 3000 rpm and was visually inspected for precipitation. 5 μL of 3-fold enzyme stock solution were transferred to an empty 384-well Black/Clear Flat Bottom Polystyrene NBS (Corning) rows 3-24. Rows 1-2 were filled with assay buffer. Plates were spun 10 seconds at 1000 rpm (164×g). 5 μL of compound intermediate dilution was added and mixed by pipetting up/down to rows 3-24. Rows 1-2 were filled with 3.1% DMSO assay buffer. Plates were spun 10 seconds at 1000 rpm (164×g). 5 μL 3-fold Nucleotide/DNA mix was added to all wells to start the reaction. Plates were spun 10 seconds at 1000 rpm (164×g) and incubated for 4 hour at room temperature (RT) in the dark. 5 μL 4 U/mL PPase (Sigma) were added to all wells. Plates spun 10 seconds at 1000 rpm (164×g). 10 μL BioMol green Solution (Enzo Life Sciences) was added to all wells. Plates spun 10 seconds at 1000 rpm (164×g) and incubated 30 minutes at RT in the dark. Absorbance data was collected 620 nm on an EnVision Multilable Reader (Perkin Elmer) and the following measurement settings were used: excitation filter photometric was 620 nm; excitation from the top; measurement height was 1 mm; number of flashes was 30; number of flashes integrated was 1.
All plates are checked for abnormalities and outliers in the Blank Control (no protein, row 1) and the Neutral Control (no compound, row 2) are excluded using the 3*SD rule.
Table 5 provides IC50 values (μM) for cGAS inhibition obtained for particular examples of the present invention as measured by the above-described assay.

[1] = cGAS inhibition, 25 nM cGAS, 80 μM ATP, 80 μM GTP, 100 nM ISD, 4 hour at RT, Malachite Green phosphate detection, read-out: IC50 cGAS

T1 sequence (Q8N884 161-522): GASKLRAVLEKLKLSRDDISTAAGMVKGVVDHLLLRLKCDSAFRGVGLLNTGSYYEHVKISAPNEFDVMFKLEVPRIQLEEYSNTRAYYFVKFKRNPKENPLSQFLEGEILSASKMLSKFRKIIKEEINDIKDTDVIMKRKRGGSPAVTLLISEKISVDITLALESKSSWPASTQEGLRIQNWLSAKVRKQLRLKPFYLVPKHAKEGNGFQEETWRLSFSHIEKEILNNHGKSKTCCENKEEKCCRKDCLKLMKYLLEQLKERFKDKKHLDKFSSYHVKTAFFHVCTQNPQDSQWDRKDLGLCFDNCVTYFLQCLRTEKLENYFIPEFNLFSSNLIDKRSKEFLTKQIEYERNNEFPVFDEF

| IC50 | IC50 [1] | SMILES |
| --- | --- | --- |
| 7.79 µM | – | O=c1nc(CCc2ccccc2)[nH]c2nc(NCc3ccc(Cl)cc3Cl)nn12 [Example 101, 2-[(2,4-Dichlorophenyl)methylamino]-5-(2-phenylethyl)-4H-[1,2,4]triazolo[1,5-a][1,3,5]-triazin-7-one] |
| – | 0.816 µM | CCc1cc(=O)n2nc(NCc3cc(-c4ccn(C)n4)ccc3Cl)nc2[nH]1 [Example 33, 2-[[2-chloro-5-(1-methylpyrazol-3-yl)phenyl]methylamino]-5-ethyl-4H-[1,2,4]triazolo[1,5-a]pyrimidin-7-one] |
| 2.9 µM | – | CCCc1cc(=O)n2nc(OCc3cc(-c4cnn(C)c4)ccc3Cl)nc2[nH]1 [Example 91, 2-[[2-Chloro-5-(1-methylpyrazol-4-yl)phenyl]methoxyl]-5-propyl-4H-[1,2,4]triazolo[1,5-a]pyrimidin-7-one] |
| – | 3.53 µM | CCCCc1cc(=O)n2nc(NCc3cnn(-c4cnccn4)c3)nc2[nH]1 [Example 45, 5-butyl-2-[(1-pyrazin-2-ylpyr-azol-4-yl)methylamino]-4H-[1,2,4]triazolo[1,5-a]pyrimidin-7-one] |
| – | 0.602 µM | CCCc1cc(=O)n2nc(NCc3cc(-c4ccn(C)n4)ccc3F)nc2[nH]1 [Example 12, 2-[[2-fluoro-5-(1-methylpyrazol-3-yl)phenyl]methylamino]-5-propyl-4H-[1,2,4]triazolo[1,5-a]pyrimidin-7-one] |
| – | 0.827 µM | O=c1cc(C(F)(F)F)[nH]c2nc(NCc3ccc(-c4ccccc4)cc3)nn12 [Example 75, 2-[(4-phenylphenyl)methyl-amino]-5-(trifluoromethyl)-4H-[1,2,4]triazolo[1,5-a]pyrimidin-7-one] |
| – | 4.01 µM | CCCc1cc(=O)n2nc(NCc3ccc(-n4cccn4)cc3)nc2[nH]1 [Example 5, 5-propyl-2-[(4-pyrazol-1-yl-phenyl)methylamino]-4H-[1,2,4]-triazolo[1,5-a]pyrimidin-7-one] |
| – | 2.19 µM | CCCc1cc(=O)n2nc(NCc3cnc(N4CCOCC4)cc3Cl)nc2[nH]1 [Example 99, 2-[(4-Chloro-6-morpholino-3-pyridyl)methylamino]-5-propyl-4H-[1,2,4]triazolo[1,5-a]pyrimidin-7-one] |
| – | 0.65 µM | CCCc1cc(=O)n2nc(NCc3cc(N4CC(OC)C4)ncc3Cl)nc2[nH]1 [Example 93, 2-[[5-Chloro-2-(3-methoxyazetidin-1-yl)-4-pyridyl]methylamino]-5-propyl-4H-[1,2,4]triazolo[1,5-a]pyrimidin-7-one] |
| – | 4.08 µM | CCCc1cc(=O)n2nc(NCc3ccc(OC4CC4)cc3)nc2[nH]1 [Example 10, 2-[[4-(cyclopropoxy)phenyl]-methylamino]-5-propyl-4H-[1,2,4]triazolo[1,5-a]pyrimidin-7-one] |
| 0.444 µM | – | CCCc1cc(=O)n2nc(NCc3cc(-c4cn(C)cn4)ccc3Cl)nc2[nH]1 [Example 30, 2-[[2-chloro-5-(1-methylimid-azol-4-yl)phenyl]methylamino]-5-propyl-4H-[1,2,4]triazolo[1,5-a]pyrimidin-7-one] |
| 2.74 µM | – | CC(C)c1cc(=O)n2nc(NCc3ccc(Cl)cc3Cl)nc2[nH]1 [Example 61, 2-[(2,4-dichlorophenyl)methyl-amino]-5-isopropyl-4H-[1,2,4]-triazolo[1,5-a]pyrimidin-7-one] |
| – | 2.01 µM | CCCCc1cc(=O)n2nc(NCc3ccn(-c4ccccc4)n3)nc2[nH]1 [Example 47, 5-butyl-2-[(1-phenylpyrazol-3-yl)methylamino]-4H-[1,2,4]-triazolo[1,5-a]pyrimidin-7-one] |
| 8.41 µM | – | CC(Nc1nc2[nH]c(C(F)(F)F)cc(=O)n2n1)c1ccc(Cl)cc1Cl (stereo not shown) [Example 77, 2-[1-(2,4-dichlorophenyl)ethyl-amino]-5-(trifluoromethyl)-4H-[1,2,4]triazolo[1,5-a]pyrimidin-7-one] |
| – | 1.57 µM | O=c1cc(CC2CCC2)[nH]c2nc(NCc3ccc(-c4ccccc4)cc3)nn12 [Example 3, 5-(cyclobutylmethyl)-2-[(4-phen-ylphenyl)methylamino]-4H-[1,2,4]triazolo[1,5-a]pyrimidin-7-one] |
| – | 0.392 µM | CCCc1cc(=O)n2nc(NCc3cc(-c4cncnc4)ccc3Cl)nc2[nH]1 [Example 36, 2-[(2-chloro-5-pyrimidin-5-yl-phenyl)methylamino]-5-propyl-4H-[1,2,4]triazolo[1,5-a]-pyrimidin-7-one] |
| – | 1.49 µM | CCCc1cc(=O)n2nc(NCc3cc(-c4ccn(C)n4)ccn3)nc2[nH]1 [Example 82, 2-[[4-(1-methylpyrazol-3-yl)-2-pyridyl]methylamino]-5-propyl-4H-[1,2,4]triazolo-[1,5-a]pyrimidin-7-one] |

| IC50 | IC50 [1] | SMILES |
| --- | --- | --- |
| 0.765 µM | – | CCCc1cc(=O)n2nc(NCc3ccc(-c4ccccc4)cc3Cl)nc2[nH]1 [Example 4] |
| – | 1.72 µM | CCCc1cc(=O)n2nc(NCc3ccc(Cl)cc3Cl)nc2[nH]1 [Example 58, 2-[(2,4-Dichlorophenyl)methylamino]-5-propyl-4H-[1,2,4]triazolo[1,5-a]pyrimidin-7-one] |
| 0.64 µM | – | CCCc1cc(=O)n2nc(NCc3cc(-n4cncc4C)ccc3Cl)nc2[nH]1 [Example 87, 2-[[2-chloro-5-(5-methylimidazol-1-yl)phenyl]methylamino]-5-propyl-4H-[1,2,4]triazolo[1,5-a]pyrimidin-7-one] |
| – | 1.04 µM | CCCc1cc(=O)n2nc(NCc3cc(N4CCOCC4)ccc3Cl)nc2[nH]1 [Example 39, 2-[(2-chloro-5-morpholinophen-yl)methylamino]-5-propyl-4H-[1,2,4]triazolo[1,5-a]pyrimidin-7-one] |
| – | 2.55 µM | CCCc1cc(=O)n2nc(NCc3cc(N4CCCCC4)ncc3Cl)nc2[nH]1 [Example 94, 2-[[5-chloro-2-(1-piperidyl)-4-pyridyl]methylamino]-5-propyl-4H-[1,2,4]triazolo[1,5-a]pyrimidin-7-one] |
| 4.61 µM | – | O=c1cc(CNc2ccccc2)[nH]c2nc(NCc3ccc(Cl)cc3Cl)nn12 [Example 79, 5-(Anilinomethyl)-2-[(2,4-dichlorophenyl)methylamino]-4H-[1,2,4]triazolo[1,5-a]pyrimidin-7-one] |
| – | 2.13 µM | CCCc1cc(=O)n2nc(NCc3ccc(N4CCOCC4)cc3)nc2[nH]1 [Example 42, 2-[(4-morpholinophenyl)meth-amino]-5-propyl-4H-[1,2,4]-triazolo[1,5-a]pyrimidin-7-one] |
| – | 3.64 µM | CCCc1cc(=O)n2nc(NCc3ccc(OC)cc3C)nc2[nH]1 [Example 70, 2-[(4-methoxy-2-methylphen-yl)methylamino]-5-propyl-4H-[1,2,4]triazolo[1,5-a]pyrimidin-7-one] |
| – | 2.45 µM | CC(Nc1nc2[nH]c(C(F)(F)F)cc(=O)n2n1)c1ccc(-c2ccccc2)cc1 (stereo not shown) [Example 78, 2-[1-(4-phenylphenyl)ethyl-amino]-5-(trifluoromethyl)-4H-[1,2,4]triazolo[1,5-a]pyrimidin-7-one] |
| 1.34 µM | – | CCCc1cc(=O)n2nc(NCc3ccc(OCC)cc3Cl)nc2[nH]1 [Example 11] |
| – | 1.24 µM | Cn1ccc(-c2ccc(F)c(CNc3nc4[nH]c(C(F)(F)F)cc(=O)n4n3)c2)n1 [Example 20, 2-[[2-fluoro-5-(1-methylpyrazol-3-yl)phenyl]methylamino]-5-(trifluoromethyl)-4H-[1,2,4]-triazolo[1,5-a]pyrimidin-7-one] |
| – | 6.57 µM | CCCCc1cc(=O)n2nc(NCc3cc(-c4ccccc4)nn3C)nc2[nH]1 [Example 44, 5-butyl-2-[(2-methyl-5-phenyl-pyrazol-3-yl)methylamino]-4H-[1,2,4]triazolo[1,5-a]pyrimidin-7-one] |
| – | 2.2 µM | CCCc1cc(=O)n2nc(NCc3ccc(OCC)cc3)nc2[nH]1 [Example 54, 2-[(4-ethoxyphenyl)methyl-amino]-5-propyl-4H-[1,2,4]-triazolo[1,5-a]pyrimidin-7-one] |
| – | 3.59 µM | O=c1cc(CC2CC2)[nH]c2nc(NCc3ccc(Cl)cc3Cl)nn12 [Example 63, 5-(cyclopropylmethyl)-2-[(2,4-dichlorophenyl)methylamino]-4H-[1,2,4]triazolo[1,5-a]-pyrimidin-7-one] |
| – | 4.38 µM | CCCc1cc(=O)n2nc(NCc3ccc(-c4ncccn4)cc3)nc2[nH]1 [Example 2, 5-propyl-2-[(4-pyrimidin-2-yl-phenyl)methylamino]-4H-[1,2,4]-triazolo[1,5-a]pyrimidin-7-one;] |
| – | 2.18 µM | CCCc1cc(=O)n2nc(OCc3ccc(-c4ccccc4)cc3Cl)nc2[nH]1 [Example 92, 2-1(2-Chloro-4-phenyl-phenyl)methoxyl-5-propyl-4H-[1,2,4]triazolo[1,5-a]pyrimidin-7-one] |
| 1.24 µM | – | CCCc1cc(=O)n2nc(NCc3cc(-c4ccn(C)n4)ccc3C)nc2[nH]1 [Example 83, 2-[[2-methyl-5-(1-methyl-pyrazol-3-yl)phenyl]methyl-amino]-5-propyl-4H-[1,2,4]-triazolo[1,5-a]pyrimidin-7-one] |
